Structures are written as SMILES.

This assay addresses T1, BACE2 (Homo sapiens, UniProt Q9Y5Z0).
T1 construct: BACE2 enzyme ectodomain (derived from plasmid “pET17b-T7-hu proBACE2”) was prepared as described in Ostermann et al; T7 tag (N); made in house
T1 sequence (Q9Y5Z0 21-473 limits assumed): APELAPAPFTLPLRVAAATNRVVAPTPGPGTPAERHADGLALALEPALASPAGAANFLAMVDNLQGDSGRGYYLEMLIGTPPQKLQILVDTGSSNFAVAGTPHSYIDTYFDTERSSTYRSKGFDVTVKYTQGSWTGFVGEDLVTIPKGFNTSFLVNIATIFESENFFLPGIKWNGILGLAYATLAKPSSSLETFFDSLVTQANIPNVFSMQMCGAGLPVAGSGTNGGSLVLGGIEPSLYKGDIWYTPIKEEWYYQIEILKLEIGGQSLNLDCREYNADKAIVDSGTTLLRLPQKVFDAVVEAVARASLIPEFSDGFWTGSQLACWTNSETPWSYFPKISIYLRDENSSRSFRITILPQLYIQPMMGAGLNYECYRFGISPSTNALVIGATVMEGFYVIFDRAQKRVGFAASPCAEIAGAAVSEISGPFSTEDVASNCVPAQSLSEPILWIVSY
Briefly: Fluorescent-peptide cleavage assay for BACE2 inhibition. Format: biochemical. The following applies: BACE2 enzyme ectodomain, fluorescent peptide WS EVNLD AEFRC-MR121, assay buffer pH 4.5, room temperature. The gist of the method:
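Pro-enzyme BACE2 was activated at 80 nM for 1 h at room temperature in 100 mM Na-acetate, 20 mM EDTA, 0.05% BSA, pH 4.5, then preincubated 10 min with compound. IC50 from sigmoidal dose-response fit.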
The term IC50 denotes the concentration that gives 50% inhibition. A low value points to higher potency. The compound `CN1C(=O)C[C@@](C)(c2cncc(NC(=O)c3ccc(Cl)cn3)c2)N=C1N` [Example 52, 5-Chloro-pyridine-2-carboxylic acid [5-((S)-2-amino-1,4-dimethyl-6-oxo-1,4,5,6-tetrahydro-pyrimidin-4-yl)-pyridin-3-yl]-amide] returned an IC50 of 11 nM.
The result for `CN1C(=O)C(C)(C)[C@@](C)(c2cc(NC(=O)c3ccc(Cl)cn3)ccc2F)N=C1N` [Example 53, 5-Chloro-pyridine-2-carboxylic acid [3-((S)-2-amino-1,4,5,5-tetramethyl-6-oxo-1,4,5,6-tetrahydro-pyrimidin-4-yl)-4-fluoro-phenyl]amide] reads 8 nM; that for `CN1C(=O)C[C@@](C)(c2cccc(NC(=O)c3nc(Cl)ccc3Cl)c2)N=C1N` [Example 54, 3,6-Dichloro-pyridine-2-carboxylic acid [3-((S)-2-amino-1,4-dimethyl-6-oxo-1,4,5,6-tetrahydro-pyrimidin-4-yl)-phenyl]-amide], 976 nM; that for `CCCOc1cccnc1C(=O)Nc1cccc([C@]2(C)CC(=O)N(C)C(N)=N2)c1` [Example 55, 3-Propoxy-pyridine-2-carboxylic acid [3-((S)-2-amino-1,4-dimethyl-6-oxo-1,4,5,6-tetrahydro-pyrimidin-4-yl)-phenyl]-amide], 349 nM.
Take `CN1C(=O)C[C@@](C)(c2cccc(NC(=O)c3nccc4ccccc34)c2)N=C1N` [Example 56, Isoquinoline-1-carboxylic acid [3-((S)-2-amino-1,4-dimethyl-6-oxo-1,4,5,6-tetrahydro-pyrimidin-4-yl)-phenyl]-amide]: inhibition was half-maximal at 2980 nM (IC50).
With `CN1C(=O)C[C@@](C)(c2cccc(NC(=O)c3cc4ccccc4cn3)c2)N=C1N` [Example 57, Isoquinoline-3-carboxylic acid [3-((S)-2-amino-1,4-dimethyl-6-oxo-1,4,5,6-tetrahydro-pyrimidin-4-yl)-phenyl]amide] the figure was 110 nM.
As for `CN1C(=O)C[C@@](C)(c2cccc(NC(=O)c3ccc4ccccc4n3)c2)N=C1N` [Example 58, Quinoline-2-carboxylic acid [3-((S)-2-amino-1,4-dimethyl-6-oxo-1,4,5,6-tetrahydro-pyrimidin-4-yl)-phenyl]-amide], the IC50 stood at 410 nM.
The result for `CN1C(=O)C[C@@](C)(c2cccc(NC(=O)c3ccc4sccc4n3)c2)N=C1N` [Example 59, Thieno[3,2-b]pyridine-5-carboxylic acid [3-((S)-2-amino-1,4-dimethyl-6-oxo-1,4,5,6-tetrahydro-pyrimidin-4-yl)-phenyl]-amide] reads 1700 nM.
`CN1C(=O)C[C@@](C)(c2cccc(NC(=O)c3nccc4ccsc34)c2)N=C1N` [Example 60, Thieno[2,3-c]pyridine-7-carboxylic acid [3-((S)-2-amino-1,4-dimethyl-6-oxo-1,4,5,6-tetrahydro-pyrimidin-4-yl)-phenyl]-amide] displayed an IC50 of 240 nM.
Consider `CN1C(=O)C[C@@](C)(c2cccc(NC(=O)c3ncccc3Sc3ccccc3)c2)N=C1N` [Example 61, 3-Phenylsulfanyl-pyridine-2-carboxylic acid [3-((S)-2-amino-1,4-dimethyl-6-oxo-1,4,5,6-tetrahydro-pyrimidin-4-yl)-phenyl]-amide], for which the IC50 was found to be 240 nM.
With `CN1C(=O)C[C@@](C)(c2cccc(NC(=O)c3ncccc3C(F)(F)F)c2)N=C1N` [Example 62, 3-Trifluoromethyl-pyridine-2-carboxylic acid [3-((S)-2-amino-1,4-dimethyl-6-oxo-1,4,5,6-tetrahydro-pyrimidin-4-yl)-phenyl]-amide] the figure was 150 nM; with `CN1C(=O)C[C@@](C)(c2cccc(NC(=O)c3ccc(OCC(F)(F)F)cn3)c2)N=C1N` [Example 63, 5-(2,2,2-Trifluoro-ethoxy)-pyridine-2-carboxylic acid [3-((S)-2-amino-1,4-dimethyl-6-oxo-1,4,5,6-tetrahydro-pyrimidin-4-yl)-phenyl]-amide], 60 nM.
For the compound `CN1C(=O)C[C@@](C)(c2cccc(NC(=O)c3ncc(Cl)cc3Cl)c2)N=C1N` [Example 64, 3,5-Dichloro-pyridine-2-carboxylic acid [3-((S)-2-amino-1,4-dimethyl-6-oxo-1,4,5,6-tetrahydro-pyrimidin-4-yl)-phenyl]-amide], half-maximal inhibition (IC50) was put at 60 nM.
`COc1cccnc1C(=O)Nc1cccc([C@]2(C)CC(=O)N(C)C(N)=N2)c1` [Example 65, 3-Methoxy-pyridine-2-carboxylic acid [3-((S)-2-amino-1,4-dimethyl-6-oxo-1,4,5,6-tetrahydro-pyrimidin-4-yl)-phenyl]-amide] displayed an IC50 of 160 nM. This IC50 is about 2.7-fold higher than that of the compound before.
For the compound `CN1C(=O)C[C@@](C)(c2cccc(NC(=O)c3csc(C(F)(F)F)n3)c2)N=C1N` [Example 66, 2-Trifluoromethyl-thiazole-4-carboxylic acid [3-((S)-2-amino-1,4-dimethyl-6-oxo-1,4,5,6-tetrahydro-pyrimidin-4-yl)-phenyl]-amide], the IC50 is 1550 nM.
With `Cc1nc(C(=O)Nc2cccc([C@]3(C)CC(=O)N(C)C(N)=N3)c2)cs1` [Example 67, 2-Methyl-thiazole-4-carboxylic acid [3-((S)-2-amino-1,4-dimethyl-6-oxo-1,4,5,6-tetrahydro-pyrimidin-4-yl)-phenyl]-amide] the figure was 160 nM; with `CN1C(=O)C[C@@](C)(c2cccc(NC(=O)c3cc4ccccc4s3)c2)N=C1N` [Example 68, Benzo[b]thiophene-2-carboxylic acid [3-((S)-2-amino-1,4-dimethyl-6-oxo-1,4,5,6-tetrahydro-pyrimidin-4-yl)-phenyl]-amide], 102 nM.
Compound `CN1C(=O)C[C@@](C)(c2cccc(NC(=O)c3ccn(C)n3)c2)N=C1N` [Example 69, 1-Methyl-1H-pyrazole-3-carboxylic acid [3-((S)-2-amino-1,4-dimethyl-6-oxo-1,4,5,6-tetrahydro-pyrimidin-4-yl)-phenyl]-amide] returned an IC50 of 61 nM. This IC50 lies about 1.7-fold lower than the previous one.
The result for `CN1C(=O)C[C@@](C)(c2cccc(NC(=O)c3ncc(C(F)(F)F)cc3Cl)c2)N=C1N` [Example 70, 3-Chloro-5-trifluoromethyl-pyridine-2-carboxylic acid [3-((S)-2-amino-1,4-dimethyl-6-oxo-1,4,5,6-tetrahydro-pyrimidin-4-yl)-phenyl]-amide] reads 16 nM; that for `CN1C(=O)C[C@@](C)(c2cccc(NC(=O)c3coc(-c4ccccc4)n3)c2)N=C1N` [Example 71, 2-Phenyl-oxazole-4-carboxylic acid [3-((S)-2-amino-1,4-dimethyl-6-oxo-1,4,5,6-tetrahydro-pyrimidin-4-yl)-phenyl]-amide], 1310 nM.
The result for `CN1C(=O)C[C@@](C)(c2cccc(NC(=O)c3nc(Cl)ccc3C(F)(F)F)c2)N=C1N` [Example 72, 6-Chloro-3-trifluoromethyl-pyridine-2-carboxylic acid [3-((S)-2-amino-1,4-dimethyl-6-oxo-1,4,5,6-tetrahydro-pyrimidin-4-yl)-phenyl]-amide] reads 1520 nM.
With `CN1C(=O)C[C@@](C)(c2cccc(NC(=O)c3ccn(CC(F)(F)F)n3)c2)N=C1N` [Example 73, 1-(2,2,2-Trifluoro-ethyl)-1H-pyrazole-3-carboxylic acid [3-((S)-2-amino-1,4-dimethyl-6-oxo-1,4,5,6-tetrahydro-pyrimidin-4-yl)-phenyl]-amide] the figure was 2070 nM.

The record behind these values is patent US8461160B2, “Dihydropyrimidinones” (Hoffmann-La Roche, Inc., priority 2009, dated 2013).
